Test results: the NIST ThermoML archive (doi:10.1016/j.jct.2016.06.016)
Numbers after ± are expanded uncertainties.

Experiment: refractive index (Na D-line) (dimensionless); xn = mol fraction of the nth substance listed
Details: 100 kPa, Liquid, Standard Abbe refractometry

CCOC(=O)CCC(=O)OCC [diethyl butanedioate] + CCCO
refractive index
Details	x1 = 0.1	x1 = 0.2	x1 = 0.2999	x1 = 0.3998	x1 = 0.4999	x1 = 0.6001	x1 = 0.7001	x1 = 0.8002	x1 = 0.8997	x1 = 1
288.15 K	1.394 ± 0.0014	1.3993 ± 0.0014	1.4037 ± 0.0014	1.4075 ± 0.0014	1.4107 ± 0.0014	1.4135 ± 0.0014	1.416 ± 0.0014	1.4182 ± 0.0014	1.4201 ± 0.0014	1.4217 ± 0.0014
293.15 K	1.3918 ± 0.0014	1.3971 ± 0.0014	1.4016 ± 0.0014	1.4053 ± 0.0014	1.4085 ± 0.0014	1.4113 ± 0.0014	1.4138 ± 0.0014	1.416 ± 0.0014	1.4179 ± 0.0014	1.4195 ± 0.0014
298.15 K	1.3897 ± 0.0014	1.395 ± 0.0014	1.3994 ± 0.0014	1.4031 ± 0.0014	1.4063 ± 0.0014	1.4091 ± 0.0014	1.4116 ± 0.0014	1.4138 ± 0.0014	1.4157 ± 0.0014	1.4173 ± 0.0014
303.15 K	1.3876 ± 0.0014	1.3928 ± 0.0014	1.3972 ± 0.0014	1.4009 ± 0.0014	1.4041 ± 0.0014	1.4069 ± 0.0014	1.4094 ± 0.0014	1.4116 ± 0.0014	1.4135 ± 0.0014	1.4151 ± 0.0014
308.15 K	1.3854 ± 0.0014	1.3906 ± 0.0014	1.3949 ± 0.0014	1.3986 ± 0.0014	1.4018 ± 0.0014	1.4047 ± 0.0014	1.4072 ± 0.0014	1.4094 ± 0.0014	1.4113 ± 0.0014	1.4129 ± 0.0014
313.15 K	1.3831 ± 0.0014	1.3883 ± 0.0014	1.3927 ± 0.0014	1.3964 ± 0.0014	1.3996 ± 0.0014	1.4025 ± 0.0014	1.4049 ± 0.0014	1.4072 ± 0.0014	1.4091 ± 0.0014	1.4108 ± 0.0014
318.15 K	1.3809 ± 0.0014	1.3861 ± 0.0014	1.3905 ± 0.0014	1.3942 ± 0.0014	1.3974 ± 0.0014	1.4002 ± 0.0014	1.4027 ± 0.0014	1.4049 ± 0.0014	1.4069 ± 0.0014	1.4088 ± 0.0014
323.15 K	1.3787 ± 0.0014	1.3839 ± 0.0014	1.3882 ± 0.0014	1.392 ± 0.0014	1.3952 ± 0.0014	1.398 ± 0.0014	1.4005 ± 0.0014	1.4027 ± 0.0014	1.4048 ± 0.0014	1.4067 ± 0.0014

CCOC(=O)CCC(=O)OCC [diethyl butanedioate] + CCCCCCO
refractive index
Details	x1 = 0.0999	x1 = 0.2	x1 = 0.3001	x1 = 0.4	x1 = 0.4999	x1 = 0.6	x1 = 0.7002	x1 = 0.7999	x1 = 0.9	x1 = 1
288.15 K	1.4192 ± 0.0014	1.419 ± 0.0014	1.4189 ± 0.0014	1.4191 ± 0.0014	1.4193 ± 0.0014	1.4197 ± 0.0014	1.4202 ± 0.0014	1.4207 ± 0.0014	1.4212 ± 0.0014	1.4217 ± 0.0014
293.15 K	1.4172 ± 0.0014	1.4169 ± 0.0014	1.4168 ± 0.0014	1.417 ± 0.0014	1.4172 ± 0.0014	1.4176 ± 0.0014	1.418 ± 0.0014	1.4185 ± 0.0014	1.419 ± 0.0014	1.4195 ± 0.0014
298.15 K	1.4152 ± 0.0014	1.4148 ± 0.0014	1.4147 ± 0.0014	1.4148 ± 0.0014	1.415 ± 0.0014	1.4154 ± 0.0014	1.4158 ± 0.0014	1.4163 ± 0.0014	1.4168 ± 0.0014	1.4173 ± 0.0014
303.15 K	1.4131 ± 0.0014	1.4127 ± 0.0014	1.4126 ± 0.0014	1.4127 ± 0.0014	1.4129 ± 0.0014	1.4133 ± 0.0014	1.4136 ± 0.0014	1.4142 ± 0.0014	1.4147 ± 0.0014	1.4151 ± 0.0014
308.15 K	1.4111 ± 0.0014	1.4107 ± 0.0014	1.4105 ± 0.0014	1.4106 ± 0.0014	1.4108 ± 0.0014	1.4111 ± 0.0014	1.4115 ± 0.0014	1.412 ± 0.0014	1.4125 ± 0.0014	1.4129 ± 0.0014
313.15 K	1.409 ± 0.0014	1.4086 ± 0.0014	1.4084 ± 0.0014	1.4084 ± 0.0014	1.4086 ± 0.0014	1.4089 ± 0.0014	1.4093 ± 0.0014	1.4098 ± 0.0014	1.4103 ± 0.0014	1.4108 ± 0.0014
318.15 K	1.407 ± 0.0014	1.4065 ± 0.0014	1.4063 ± 0.0014	1.4063 ± 0.0014	1.4064 ± 0.0014	1.4068 ± 0.0014	1.4071 ± 0.0014	1.4076 ± 0.0014	1.4082 ± 0.0014	1.4088 ± 0.0014
323.15 K	1.4049 ± 0.0014	1.4044 ± 0.0014	1.4042 ± 0.0014	1.4042 ± 0.0014	1.4043 ± 0.0014	1.4046 ± 0.0014	1.405 ± 0.0014	1.4054 ± 0.0014	1.406 ± 0.0014	1.4067 ± 0.0014

CCOC(=O)CCC(=O)OCC [diethyl butanedioate] + CCCCO
refractive index
Details	x1 = 0.1	x1 = 0.2001	x1 = 0.3	x1 = 0.3999	x1 = 0.5	x1 = 0.6001	x1 = 0.6998	x1 = 0.7999	x1 = 0.8997	x1 = 1
288.15 K	1.4042 ± 0.0014	1.4069 ± 0.0014	1.4094 ± 0.0014	1.4116 ± 0.0014	1.4137 ± 0.0014	1.4156 ± 0.0014	1.4173 ± 0.0014	1.419 ± 0.0014	1.4204 ± 0.0014	1.4217 ± 0.0014
293.15 K	1.4021 ± 0.0014	1.4048 ± 0.0014	1.4072 ± 0.0014	1.4094 ± 0.0014	1.4115 ± 0.0014	1.4134 ± 0.0014	1.4151 ± 0.0014	1.4168 ± 0.0014	1.4182 ± 0.0014	1.4195 ± 0.0014
298.15 K	1.4 ± 0.0014	1.4027 ± 0.0014	1.405 ± 0.0014	1.4073 ± 0.0014	1.4093 ± 0.0014	1.4112 ± 0.0014	1.4129 ± 0.0014	1.4146 ± 0.0014	1.416 ± 0.0014	1.4173 ± 0.0014
303.15 K	1.3979 ± 0.0014	1.4005 ± 0.0014	1.4029 ± 0.0014	1.4051 ± 0.0014	1.4071 ± 0.0014	1.409 ± 0.0014	1.4107 ± 0.0014	1.4123 ± 0.0014	1.4138 ± 0.0014	1.4151 ± 0.0014
308.15 K	1.3958 ± 0.0014	1.3983 ± 0.0014	1.4007 ± 0.0014	1.4029 ± 0.0014	1.4049 ± 0.0014	1.4068 ± 0.0014	1.4085 ± 0.0014	1.4101 ± 0.0014	1.4116 ± 0.0014	1.4129 ± 0.0014
313.15 K	1.3936 ± 0.0014	1.3962 ± 0.0014	1.3985 ± 0.0014	1.4007 ± 0.0014	1.4027 ± 0.0014	1.4046 ± 0.0014	1.4063 ± 0.0014	1.4079 ± 0.0014	1.4094 ± 0.0014	1.4108 ± 0.0014
318.15 K	1.3915 ± 0.0014	1.394 ± 0.0014	1.3963 ± 0.0014	1.3985 ± 0.0014	1.4005 ± 0.0014	1.4024 ± 0.0014	1.4041 ± 0.0014	1.4058 ± 0.0014	1.4073 ± 0.0014	1.4088 ± 0.0014
323.15 K	1.3894 ± 0.0014	1.3918 ± 0.0014	1.3942 ± 0.0014	1.3963 ± 0.0014	1.3983 ± 0.0014	1.4002 ± 0.0014	1.402 ± 0.0014	1.4036 ± 0.0014	1.4052 ± 0.0014	1.4067 ± 0.0014
